# Where two headings read alike, the source gives them in different places.
# Experiments:
# endothelial cells = experiment: Endothelial cell proliferation assay (cell phosphatase activity); type: cell-based, human; conditions: for Rescue from Rimcazole inhibition of proliferation: 4 μM agonist added together with 4 μM Rimcazole; for Stimulatory activity on cell proliferation: agonist ligands alone; for Agonists: stimulation: increase in cell number relative to controls on day 4; for IC50: concentration of drug required to inhibit survival and/or proliferation by 50%, read-out: Antagonists: IC50
# Procedure: HUVECS (human umbilical vein endothelial cells) obtained from TCS Biologicals were grown in TCS Biologicals Large Vessel Endothelial Cell Basal Medium (ZHM-2951) with supplement (ZHS-8945). This contains heparin, hydrocortisone, human EGF, human bFGF (concentrations not disclosed by the Company) with added 2% FCS, pH 7.4.
# (§1) HMEC-1 (immortalised human microvascular endothelial cells) obtained from Dr Colin Porter, Chester Beatty Laboratories were grown in TCS Biologicals Microvascular Endothelial Cell Basal Medium (ZHM-2946) with supplement (ZHS-8947). This contains heparin, hydrocortisone, human EGF, human bFGF, dibutyryl cyclic AMP (concentrations not disclosed by the Company) with added 5% FCS, pH 7.4.
# as §1, with “HDMECS (human dermal” for “HMEC-1 (immortalised human”, “TCS Biologicals” for “Dr Colin Porter, Chester Beatty Laboratories”
# The cells were seeded at 2×10^4 ml in 96 well microtitre plates on day 0, and sigma ligands were added in fresh medium on day 1. […] PCS at the concentrations indicated was present throughout the assay. Each concentration of drug was assayed in triplicate, and the vehicle concentration was kept constant.
# Viable cells present at the end of the assay were estimated by determining phosphatase activity as follows: 100Xl of paranitrophenylphosphate (Sigma) at 3 mg/ml in phosphate buffer pH 5.5 containing 0.1% Triton X100 was added to wells and incubated for 2hr at 37° C. The reaction was stopped with 1N NaOH. Released paranitrophenol, indicative of attached cell number, was measured by reading the absorbance at 405 nm in a Titertek multiscan. […] The 100% value is the mean absorbance of control wells treated with vehicle alone; the 0% value is that of wells containing medium only.
# sigma-1 sites = sigma-1 sites (Homo sapiens, UniProt Q99720); conditions: cited from earlier work; for affinity for sigma-1 versus sigma-2 sites / selectivity for sigma sites compared to other receptors: Matsumoto et al 1995; for selectivity for sigma sites compared to other receptors: vs opiate, phencyclidine, muscarinic, dopamine, alpha-1-, alpha-2-, beta-adrenoceptor, 5HT-1, 5-HT-2
# [1] = tested on: Human mammary epithelial cells; experiment: MTS cell viability/proliferation assay, mammary epithelial cells; type: cell-based; conditions: 10 micromolar, up to 48 hours, FIG. 9
# Text: (§2) (Tissue in all cases was from healthy donors). […] Primary cell types included:
# Human mammary epithelial cells (catalogue number CC-2551; stain positive for cytokeratins 14, 18 and 19).
# (§3) Cell density was checked microscopically at time zero.
# [2] = Pharmacokinetics in mice (LCMS of plasma, liver, spleen); type: in vivo, Balb/C mice; conditions: not shown
# Procedure: Prior to undertaking any in vivo experiments with Rimcazole to study effects on tumour growth and angiogenesis, it was necessary to determine its pharmacokinetics in order that doses in the active range could be administered. Rimcazole (dissolved in water) was administered at 40 mg/kg i.p to Balb/C mice. Heparinised blood samples were taken at 5, 15 and 30 minutes, 1,2,4,6, and 24 hours and plasma separated. Tissue samples were also taken at some time points for analysis. Rimcazole samples were initially analysed by LCMS.
# Column: Supelco 50×4.6 mm ABZ+ with 5 μ packing.
# Mobile phase: A=HPLC grade methanol, B=0.1% formic acid in water.
# Full scan mode: mass range analysed 50 to 850 amu.
# MSMS mode: filtered ions were 322 (Rimcazole), 338 (Rimcazole+oxygen), and 514 (glucuronide of 338 metabolite).
# [3] = tested on: Human adult dermal microvascular endothelial cells; experiment: MTS cell viability/proliferation assay, microvascular endothelial cells
# [4] = tested on: Human endothelial cells co-cultured with human "feeder" fibroblasts; experiment: In vitro angiogenesis assay (pseudocapillary formation, anti-CD31 staining); type: cell-based
# Procedure: Human endothelial cells co-cultured with human “feeder” fibroblasts on a fibrin matrix in 24 well plates were incubated with ligands at different concentrations. The ligands were added on days 0, 4, 7 and 9 and the experiment terminated on day 11. On each plate, 2 wells served as untreated controls, and 2 received suramin at […] as a standard angiogenesis inhibitor. Each concentration of ligand was assayed in triplicate. On day 11, the wells were washed, and the endothelial cells fixed and stained with anti-CD31 (PECAM-1) antibody and visualised with alkaline phosphatase conjugated second antibody. The cultures were scanned for image analysis and quantitation using a DataCell image analysis system and ImagePro software. Angiogenesis was expressed as the area and/or perimeter of “pseudocapillaries” formed in the gel by the endothelial cells.
# [5] = tested on: Human mammary carcinoma (MDA MB 468) cells; experiment: MTS cell viability/proliferation assay, mammary carcinoma cells; type: cell-based; conditions: 10 micromolar, low passage cells, FIG. 9
# Procedure: Human mammary carcinoma (MDA MB 468) cells were obtained from TCC, Manassas, Va., USA; catalogue number HTB-132; cells were grown in accordance with the manufacturer's instructions.
# as §3
# sponge angiogenesis = experiment: Rat sponge angiogenesis model (125I albumin vascular volume); type: in vivo, CBH/cbi rats
# Procedure: In order to study neoangiogenesis in the absence of tumours, sterile polyether sponges were implanted into animals. This technique, developed in Cambridge, has been widely used to study angiogenesis. We have employed a triple radiotracer technique to study different aspects of the angiogenic process.
# CBH/cbi rats were implanted s.c. with sterile 13 mm diameter sponges as above. They were treated i.p. with Rimcazole (30 mg/kg/day) for 14 days from day 0. Five minutes before termination, they were injected with ^125I labelled rat albumin (a macromolecule which, in the short term remains intravascular). The amount of radioiodine in the sponges is an index of vascular volume.
# [6] = tested on: human adult dermal fibroblasts; experiment: MTS cell viability/proliferation assay, dermal fibroblasts; type: cell-based
# Text: as §2, §3
# Chain of sigma-1 sites (Q99720 whole entry): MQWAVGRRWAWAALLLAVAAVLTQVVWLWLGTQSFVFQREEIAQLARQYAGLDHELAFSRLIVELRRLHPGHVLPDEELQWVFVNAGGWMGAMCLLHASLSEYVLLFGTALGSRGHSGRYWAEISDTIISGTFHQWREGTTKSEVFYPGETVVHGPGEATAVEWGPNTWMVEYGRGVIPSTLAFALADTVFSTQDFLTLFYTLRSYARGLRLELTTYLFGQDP
smiles,measurement,setting,value
"C=CCN1CCC2(C)c3cc(O)ccc3CC1C2C (single isomer, unassigned; (+)) [(+)-SKF-10047, (+)-N-allyl normetazocine]",Rescue from Rimcazole inhibition of proliferation,endothelial cells; FIG. 3,slight increase in survival
same,Rescue from Rimcazole inhibition: numbers of endothelial cells,"endothelial cells; 10 μM agonist added together with 4 μM Rimcazole, FIG. 3",the same as in control untreated cultures
same,Stimulatory activity on cell proliferation,endothelial cells,moderate stimulatory activity
same,Agonists: stimulation,endothelial cells; at 100 μM,110% at 100 μM
"N=C(Nc1ccc(I)cc1)NC1C2CC3CC(C2)CC1C3 (stereo not shown) [IPAG, 1-(4-iodophenyl)-3-(2-adamantyl)guanidine]",Ki,"sigma-1 sites; Whittemore et al 1997, read-out: inhibition constant for sigma-1 sites",~0.0028 µM
same,Survival and proliferation (MTS),[1],continued to proliferate vigorously
same,Pharmacokinetics compared with Rimcazole,[2],similarly favourable PK
same,IC50,"endothelial cells; Homo sapiens, Endothelial cell",11 µM
same,Inhibition of endothelial cell proliferation compared with Rimcazole,endothelial cells; not shown,as effective as Rimcazole
same,cytotoxicity at 10 µM,"[3]; Homo sapiens, Endothelial cell, read-out: Reduction in viable cell numbers compared to baseline values",60 to 80%
same,Inhibition of pseudocapillary formation (in vitro angiogenesis),"[4]; FIG. 4, 5a, 5b angiogenesis area",very effective in inhibiting
same,Cell killing (MTS viability),[5],no surviving cells remained after 24 hours
same,Vascular volume of normal organs (liver and kidney),sponge angiogenesis; 30 mg/kg/day for 14 days,unaffected
same,"Neoangiogenesis in sponges (vascular volume, radiolabelled albumin)","sponge angiogenesis; 30 mg/kg/day for 14 days after implantation, FIG. 7b",reduced
same,Survival and proliferation (MTS),"[6]; 10 micromolar, up to 48 hours, FIG. 9",continued to proliferate vigorously
same,Tolerance of fibroblasts over a range of concentrations (MTS),"[6]; 100 micromolar to 1 nanomolar, FIG. 10",slightly less tolerant of high concentrations
"CC(C)=CCN1CCC2(C)c3cc(O)ccc3CC1C2C (single isomer, unassigned; (+)) [(+)pentazocine, (+)-pentazocine]",Rescue from Rimcazole inhibition of proliferation,endothelial cells; FIG. 3,slight increase in survival
same,Stimulatory activity on cell proliferation,endothelial cells,moderate stimulatory activity
same,Agonists: stimulation,endothelial cells; at 4 μM,120% at 4 μM
same,Prevention of cytotoxic effect of IPAG and rimcazole,"[3]; 10 micromolar co-administered with 10 micromolar IPAG or rimcazole, FIG. 11",completely prevented
same,Cell proliferation rate on co-administration with rimcazole and IPAG,"[3]; co-administration, FIG. 11",increased cell proliferation rates above control values
same,Rescue of in vitro angiogenesis inhibition by 4 μM Rimcazole,"[4]; equimolar concentration co-incubated, FIG. 5c",can be prevented
"CN(C)CCN(C)CCc1ccc(Cl)c(Cl)c1 [BD1047, N(−)[2-(3,4-dichlorophenyl)ethyl]-N-methyl-2-(dimethylamino)ethylamine]",affinity for sigma-1 versus sigma-2 sites,sigma-1 sites,preferential affinities for sigma-1 compared to sigma-2
same,selectivity for sigma sites compared to other receptors,sigma-1 sites,marked selectivity
same,IC50,endothelial cells,74 µM
"CN1CCN(CCc2ccc(Cl)c(Cl)c2)CC1 [BD1063, 1(−)[2-(3,4-dichlorophenyl)ethyl]-4-methylpiperazine]",affinity for sigma-1 versus sigma-2 sites,sigma-1 sites,preferential affinities for sigma-1 compared to sigma-2
same,selectivity for sigma sites compared to other receptors,sigma-1 sites,marked selectivity
same,IC50,"endothelial cells; Homo sapiens, Endothelial cell",71 µM

# Reference: patent US20040019060A1, “Sigma receptor ligands and their medical uses” (priority 2000, published 2004)
